Test results reported in patent US9908897B2, “Spirocyclic derivatives” (CHRONOS THERAPEUTICS LIMITED, priority 2014, dated 2018).

Key:
[1] = molecular target: human norepinephrine transporter (NET) (Homo sapiens (Human), UniProt P23975); experiment: Scintillation Proximity Assay (SPA) competition binding, human NET; settings: recombinant hNET-CHO membranes, [3H]nisoxetine
Text: (§1) Measure of Affinity to the Human Transporters DAT, NET and SERT
(§2) Affinity is expressed in terms of inhibition constant (Ki) of the compounds of the invention for DAT, NET and SERT, and it is typically calculated from the IC50 values obtained in competition experiments using Cheng and Prusoff equation (Cheng and Prusoff, Biochem. Pharmacol. 22:3099, 1973). In the context of the present invention pKi values (corresponding to the antilogarithm of Ki) are used instead of Ki; pKi are only estimated to be accurate to about 0.3 log unit.
(§3) Scintillation Proximity Assay (SPA) for Human DAT, NET and SERT Binding
(§4) Chinese Hamster Ovary (CHO) cells stably expressing either human DAT (hDAT-CHO) or human NET (hNET-CHO) or human SERT (hSERT-CHO) are used for the membrane preparations for radioligand binding assays using Scintillation proximity Assay (SPA) technique. Each cell line is cultured independently in F-12K Nutrient Mixture containing 10% of Fetal Bovine Serum (FBS) supplemented with 450 μg/ml G-418. When cells are at 70-80% of confluence 3 mM Na Butyrate was added to the cell culture medium. After 24 h of incubation, the culture medium was removed and the cells detached with Versene (DAT) or by scraping (NET and SERT). Cell suspension is centrifuged at 41,000 g for 10 minutes at 4° C. The resultant pellets are re-suspended in 15 volumes of Ice-cold buffer (20 mM HEPES, 145 mM NaCl, 5 mM KCl, pH7.3), homogenized using an Ultra Turrax homogeniser and centrifuged as before. The resultant membrane pellets are re-suspended in up to 15 volume of ice-cold buffer, incubated for 20 minutes at 37-C and centrifuged as before at 41,000 g. The final membrane pellets are re-suspended into 5-10 volumes of ice-cold buffer, dispensed into 0.5 ml aliquots and stored at −80° C. until use. Protein concentration for each preparation is determined using Bio-Rad Protein Assay kit.
(§5) The affinity of the compounds of the invention to the human DAT or NET or SERT transporters is assessed by using the [^3H]WIN-35,428 or [^3H]nisoxetine or [^3H]citalopram binding assays in recombinant human DAT, NET and SERT membranes with the SPA technology. The final assay volume is 50 μL in 384 well plates.
(§6) Briefly, 0.5 μL of test compound in neat DMSO or 0.5 μL of DMSO for total binding (TB) or 0.5 μL of indatraline 1 mM (10 μM final concentration) for non specific binding (NSB) are added to the assay plate. 50 μL of the SPA mixture is added to each well, containing: 30 μg/mL or 10 μg/mL or 25 μg/mL DAT, NET, SERT membranes, respectively; 5 nM [^3H]WIN-35,428 or 5 nM [^3H]nisoxetine or 1 nM [^3H]citalopram, for DAT, NET, SERT assay, respectively; 2.5 mg/mL or 1 mg/mL or 4 mg/mL WGA-PVT SPA beads (PerkinElmer RPNQ0001, for DAT, NET, SERT assay, respectively. All components are added to Assay Buffer (20 mM HEPES pH 7.4, 145 mM NaCl, 5 mM KCl, 0.01% Pluronic F-127). 0.02% BSA was used for DAT binding only. Plates are sealed with Topseal A and centrifuged 1 min, 800 rpm. Plates are loaded into a 1450 Microbeta TriLux (Perkin-Elmer) plate reader and the radioactivity counted after at least 4 hrs or overnight incubation at room temperature. Curve fitting and IC50 estimations are performed using a four parameter model in XLfit (IDBS, Guilford, UK) for Microdoft Excel (Microsoft, Redmond, Wash.).

[2] = molecular target: human serotonin transporter (SERT) (Homo sapiens (Human), UniProt P31645); experiment: Scintillation Proximity Assay (SPA) competition binding, human SERT; settings: recombinant hSERT-CHO membranes, [3H]citalopram
Text: as §1, §2, §3, §4, §5, §6

[3] = molecular target: human dopamine transporter (DAT) (Homo sapiens (Human), UniProt Q01959); experiment: Scintillation Proximity Assay (SPA) competition binding, human DAT; settings: recombinant hDAT-CHO membranes, [3H]WIN-35,428
Text: as §1
In the context of the present invention pKi values (corresponding to the antilogarithm of Ki) are used instead of Ki; pKi are only estimated to be accurate to about 0.3 log unit.
as §3, §4, §5, §6

Chain of human norepinephrine transporter (NET) (P23975 whole entry): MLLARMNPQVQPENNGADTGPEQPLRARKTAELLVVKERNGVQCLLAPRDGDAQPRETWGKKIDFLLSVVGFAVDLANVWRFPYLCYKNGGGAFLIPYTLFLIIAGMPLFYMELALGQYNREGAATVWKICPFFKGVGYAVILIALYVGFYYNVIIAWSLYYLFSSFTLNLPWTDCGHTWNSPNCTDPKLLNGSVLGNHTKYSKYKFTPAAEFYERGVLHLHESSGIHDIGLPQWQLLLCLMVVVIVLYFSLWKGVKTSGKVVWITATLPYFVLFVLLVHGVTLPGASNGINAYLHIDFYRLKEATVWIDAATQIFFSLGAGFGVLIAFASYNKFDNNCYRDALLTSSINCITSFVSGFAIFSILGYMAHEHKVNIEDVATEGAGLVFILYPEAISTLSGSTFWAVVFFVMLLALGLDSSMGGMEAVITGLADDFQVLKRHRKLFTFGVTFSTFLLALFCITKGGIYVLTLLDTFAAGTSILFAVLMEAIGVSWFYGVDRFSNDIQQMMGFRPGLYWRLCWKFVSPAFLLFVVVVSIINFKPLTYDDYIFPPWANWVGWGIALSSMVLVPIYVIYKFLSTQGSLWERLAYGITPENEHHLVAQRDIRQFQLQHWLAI
Chain of human dopamine transporter (DAT) (Q01959 whole entry): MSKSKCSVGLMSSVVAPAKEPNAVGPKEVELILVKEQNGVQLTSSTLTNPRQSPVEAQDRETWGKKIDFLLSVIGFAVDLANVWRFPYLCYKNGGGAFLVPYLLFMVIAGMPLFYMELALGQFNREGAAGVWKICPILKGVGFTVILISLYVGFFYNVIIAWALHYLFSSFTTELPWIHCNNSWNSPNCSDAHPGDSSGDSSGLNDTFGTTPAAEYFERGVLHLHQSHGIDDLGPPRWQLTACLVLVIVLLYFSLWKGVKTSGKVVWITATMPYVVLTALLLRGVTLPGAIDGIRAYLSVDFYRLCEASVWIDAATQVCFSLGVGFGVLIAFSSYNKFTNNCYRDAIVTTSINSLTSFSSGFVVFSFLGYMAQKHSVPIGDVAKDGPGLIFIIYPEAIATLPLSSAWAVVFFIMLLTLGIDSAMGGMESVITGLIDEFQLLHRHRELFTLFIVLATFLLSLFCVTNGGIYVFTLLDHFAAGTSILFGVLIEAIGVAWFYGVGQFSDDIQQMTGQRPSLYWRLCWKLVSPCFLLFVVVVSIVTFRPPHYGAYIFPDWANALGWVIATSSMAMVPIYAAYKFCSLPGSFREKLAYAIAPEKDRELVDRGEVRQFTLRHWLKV
Chain of human serotonin transporter (SERT) (P31645 whole entry): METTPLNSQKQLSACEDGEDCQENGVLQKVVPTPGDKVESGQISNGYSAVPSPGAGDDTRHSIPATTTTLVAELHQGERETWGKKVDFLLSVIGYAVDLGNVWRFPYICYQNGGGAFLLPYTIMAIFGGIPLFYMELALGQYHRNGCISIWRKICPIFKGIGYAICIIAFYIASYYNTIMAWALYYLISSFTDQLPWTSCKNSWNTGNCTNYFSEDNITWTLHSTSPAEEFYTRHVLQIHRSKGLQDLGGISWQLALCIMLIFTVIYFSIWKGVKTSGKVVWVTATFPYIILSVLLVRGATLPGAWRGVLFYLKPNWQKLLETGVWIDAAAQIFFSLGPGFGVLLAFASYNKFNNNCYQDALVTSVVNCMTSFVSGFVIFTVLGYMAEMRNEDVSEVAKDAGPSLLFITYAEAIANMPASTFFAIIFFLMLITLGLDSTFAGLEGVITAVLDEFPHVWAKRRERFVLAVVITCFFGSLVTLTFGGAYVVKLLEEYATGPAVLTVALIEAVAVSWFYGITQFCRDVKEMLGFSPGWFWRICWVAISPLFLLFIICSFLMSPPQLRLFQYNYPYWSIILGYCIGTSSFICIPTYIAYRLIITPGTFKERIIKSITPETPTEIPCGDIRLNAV

| SMILES | IC50 [1] | IC50 [2] | pIC50 DAT [3] | pIC50 NET [1] | pIC50 SERT [2] |
| --- | --- | --- | --- | --- | --- |
| O[C@H]1CNCC[C@@]12CCN(c1nc(Oc3cccc(F)c3)cc(C(F)(F)F)n1)C2 (single isomer, unassigned) [Example 98, 2-[4-(3-fluorophenoxy)-6-(trifluoromethyl)pyrimidin-2-yl]-2,8-diazaspiro[4.5]decan-6-ol] | 0.437 µM | 11.2 µM | – | – | – |
| O[C@H]1CNCC[C@@]12CCN(c1nc(Oc3cccc(F)c3)cc(C(F)(F)F)n1)C2 (single isomer, unassigned) [Example 99, 2-[4-(3-fluorophenoxy)-6-(trifluoromethyl)pyrimidin-2-yl]-2,8-diazaspiro[4.5]decan-6-ol] | 0.245 µM | 11.2 µM | – | – | – |
| O[C@H]1CNCC[C@@]12CCN(c1nc(Oc3cccc(F)c3)cc(C(F)(F)F)n1)C2 (single isomer, unassigned) [Example 100, 2-[4-(3-fluorophenoxy)-6-(trifluoromethyl)pyrimidin-2-yl]-2,8-diazaspiro[4.5]decan-6-ol] | 0.398 µM | 6.92 µM | – | – | – |
| O[C@H]1CNCC[C@@]12CCN(c1nc(Oc3cccc(F)c3)cc(C(F)(F)F)n1)C2 (single isomer, unassigned) [Example 101, 2-[4-(3-fluorophenoxy)-6-(trifluoromethyl)pyrimidin-2-yl]-2,8-diazaspiro[4.5]decan-6-ol] | 0.263 µM | 11.2 µM | – | – | – |
| Cl.Fc1cccc(Oc2cc(F)c(F)cc2N2CCC3(CC2)CNCCO3)c1 [Example 2, 9-[4,5-difluoro-2-(3-fluorophenoxy)phenyl]-1-oxa-4,9-diazaspiro[5.5]undecane hydrochloride] | – | – | 8.14 | 6.03 | 6.49 |
| c1ccc(Oc2ccccc2N2CCC3(CC2)CNCCO3)cc1 [Example 3, 9-(2-phenoxyphenyl)-1-oxa-4,9-diazaspiro[5.5]undecane] | – | – | 6.09 | 5.28 | 5.02 |
| c1ccc(Oc2cccc(N3CCC4(CC3)CNCCO4)c2)cc1 [Example 6, 9-(3-phenoxyphenyl)-1-oxa-4,9-diazaspiro[5.5]undecane] | – | – | 7.41 | 5.83 | 6.12 |
| Cl.Fc1cccc(Oc2cc(F)cc(N3CCC4(CC3)CNCCO4)c2)c1 [Example 9, 9-[3-fluoro-5-(3-fluorophenoxy)phenyl]-1-oxa-4,9-diazaspiro[5.5]undecane hydrochloride] | – | – | 8.38 | 6.91 | 7.00 |
| Fc1cccc(Oc2cc(N3CCC4(CC3)CNCCO4)c(F)cc2F)c1 [Example 12, 9-[2,4-difluoro-5-(3-fluorophenoxy)phenyl]-1-oxa-4,9-diazaspiro[5.5]undecane] | – | – | 6.78 | 5.75 | 5.97 |
| Fc1cccc(Oc2cc(N3CCC4(CC3)CNCCO4)cc(F)c2F)c1 [Example 15, 9-[3,4-difluoro-5-(3-fluorophenoxy)phenyl]-1-oxa-4,9-diazaspiro[5.5]undecane] | – | – | 7.05 | 6.02 | 7.03 |
| Fc1cccc(Oc2ccc(F)c(N3CCC4(CC3)CNCCO4)c2F)c1 [Example 23, 9-[2,6-difluoro-3-(3-fluorophenoxy)phenyl]-1-oxa-4,9-diazaspiro[5.5]undecane] | – | – | 8.32 | 6.91 | 6.16 |
| N#Cc1ccc(Oc2ccccc2)cc1N1CCC2(CC1)CNCCO2 [Example 27, 2-{1-oxa-4,9-diazaspiro[5.5]undecan-9-yl}-4-phenoxybenzonitrile] | – | – | 7.54 | 5.69 | 5.15 |
| Cc1ccc(Oc2ccccc2)cc1N1CCC2(CC1)CNCCO2 [Example 29, 9-(2-methyl-5-phenoxyphenyl)-1-oxa-4,9-diazaspiro[5.5]undecane] | – | – | 7.44 | 6.01 | 5.80 |
| Fc1cccc(Oc2cncc(N3CCC4(CC3)CNCCO4)c2)c1 [Example 31, 9-[5-(3-fluorophenoxy)pyridin-3-yl]-1-oxa-4,9-diazaspiro[5.5]undecane] | – | – | 7.43 | 5.96 | 5.71 |
| c1ccc(Cc2cccc(N3CCC4(CC3)CNCCO4)c2)cc1 [Example 33, 9-(3-benzylphenyl)-1-oxa-4,9-diazaspiro[5.5]undecane] | – | – | 6.42 | 5.54 | 5.73 |
| Cc1c(C#N)cc(N2CCC3(CC2)CNCCO3)cc1Oc1cccc(F)c1.Cl [Example 35, 3-(3-fluorophenoxy)-2-methyl-5-{1-oxa-4,9-diazaspiro[5.5]undecan-9-yl}benzonitrile hydrochloride] | – | – | 8.16 | 6.52 | 8.45 |
| Cl.Fc1cccc(Oc2cccc(N3CCC4(CC3)CNCCO4)n2)c1 [Example 36, 9-[6-(3-fluorophenoxy)pyridin-2-yl]-1-oxa-4,9-diazaspiro[5.5]undecane hydrochloride] | – | – | 7.37 | 5.73 | 5.66 |
| Cl.N#Cc1cc(Oc2cccc(F)c2)nc(N2CCC3(CC2)CNCCO3)c1 [Example 38, 2-(3-fluorophenoxy)-6-{1-oxa-4,9-diazaspiro[5.5]undecan-9-yl}pyridine-4-carbonitrile hydrochloride] | – | – | 8.61 | 6.75 | 7.27 |
| Cl.N#Cc1c(C(F)(F)F)cc(N2CCC3(CC2)CNCCO3)nc1Oc1cccc(F)c1 [Example 39, 2-(3-fluorophenoxy)-6-{1-oxa-4,9-diazaspiro[5.5]undecan-9-yl}-4-(trifluoromethyl)pyridine-3-carbonitrile hydrochloride] | – | – | 6.68 | 5.78 | 4.50 |
| Cl.N#Cc1c(C(F)(F)F)cc(Oc2cccc(F)c2)nc1N1CCC2(CC1)CNCCO2 [Example 40, 6-(3-fluorophenoxy)-2-{1-oxa-4,9-diazaspiro[5.5]undecan-9-yl}-4-(trifluoromethyl)pyridine-3-carbonitrile hydrochloride] | – | – | 7.25 | 6.29 | 5.35 |
| Cc1cc(Oc2cccc(OC(F)(F)F)c2)nc(N2CCC3(CC2)CNCCO3)n1.Cl [Example 47, 9-{4-methyl-6-[3-(trifluoromethoxy)phenoxy]pyrimidin-2-yl}-1-oxa-4,9-diazaspiro[5.5]undecane hydrochloride] | – | – | 6.59 | 5.51 | 5.27 |
| Cc1cc(Oc2cc(F)cc(F)c2)nc(N2CCC3(CC2)CNCCO3)n1.Cl [Example 50, 9-[4-(3,5-difluorophenoxy)-6-methylpyrimidin-2-yl]-1-oxa-4,9-diazaspiro[5.5]undecane hydrochloride] | – | – | 8.24 | 6.96 | 5.11 |
| OC1CNCCC12CCN(c1nc(Oc3cccc(F)c3)cc(C(F)(F)F)n1)C2 (stereo not drawn) [Example 96, 2-[4-(3-fluorophenoxy)-6-(trifluoromethyl)pyrimidin-2-yl]-2,8-diazaspiro[4.5]decan-6-ol] | – | – | – | 6.62 | 5.25 |
| OC1CNCCC12CCN(c1nc(Oc3cccc(F)c3)cc(C(F)(F)F)n1)C2 (stereo not drawn) [Example 97, 2-[4-(3-fluorophenoxy)-6-(trifluoromethyl)pyrimidin-2-yl]-2,8-diazaspiro[4.5]decan-6-ol] | – | – | – | 6.62 | 5.34 |
